Reference: article PMC11233931, “Remodeling tumor‐associated macrophage for anti‐cancer effects by rational design of irreversible inhibition of mitogen‐activated protein kinase‐activated protein kinase 2” (MedComm, 2024)

Legend:
Test in all cases: Eurofins kinase selectivity profile against 380 other human recombinant kinases (Table S2)
Assay type in all cases: biochemical
[1] = biological target: T1, 380 human recombinant protein kinases (Homo sapiens, UniProt P00519, Q252H); details: Abl (Q252H) (h), read-out: Inhibition rate
T1 construct: purchased Eurofins (Celle Lévescault)
Outline: (§1)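 Outsourced panel: 380 human recombinant kinases; inhibitor tested at various concentrations; purpose: MK2 selectivity check.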

[2] = biological target: T2, 380 human recombinant protein kinases (Homo sapiens, UniProt Q12866); details: Mer(h), read-out: Inhibition rate
T2 construct: purchased Eurofins (Celle Lévescault)
T2 sequence (Q12866 21-999): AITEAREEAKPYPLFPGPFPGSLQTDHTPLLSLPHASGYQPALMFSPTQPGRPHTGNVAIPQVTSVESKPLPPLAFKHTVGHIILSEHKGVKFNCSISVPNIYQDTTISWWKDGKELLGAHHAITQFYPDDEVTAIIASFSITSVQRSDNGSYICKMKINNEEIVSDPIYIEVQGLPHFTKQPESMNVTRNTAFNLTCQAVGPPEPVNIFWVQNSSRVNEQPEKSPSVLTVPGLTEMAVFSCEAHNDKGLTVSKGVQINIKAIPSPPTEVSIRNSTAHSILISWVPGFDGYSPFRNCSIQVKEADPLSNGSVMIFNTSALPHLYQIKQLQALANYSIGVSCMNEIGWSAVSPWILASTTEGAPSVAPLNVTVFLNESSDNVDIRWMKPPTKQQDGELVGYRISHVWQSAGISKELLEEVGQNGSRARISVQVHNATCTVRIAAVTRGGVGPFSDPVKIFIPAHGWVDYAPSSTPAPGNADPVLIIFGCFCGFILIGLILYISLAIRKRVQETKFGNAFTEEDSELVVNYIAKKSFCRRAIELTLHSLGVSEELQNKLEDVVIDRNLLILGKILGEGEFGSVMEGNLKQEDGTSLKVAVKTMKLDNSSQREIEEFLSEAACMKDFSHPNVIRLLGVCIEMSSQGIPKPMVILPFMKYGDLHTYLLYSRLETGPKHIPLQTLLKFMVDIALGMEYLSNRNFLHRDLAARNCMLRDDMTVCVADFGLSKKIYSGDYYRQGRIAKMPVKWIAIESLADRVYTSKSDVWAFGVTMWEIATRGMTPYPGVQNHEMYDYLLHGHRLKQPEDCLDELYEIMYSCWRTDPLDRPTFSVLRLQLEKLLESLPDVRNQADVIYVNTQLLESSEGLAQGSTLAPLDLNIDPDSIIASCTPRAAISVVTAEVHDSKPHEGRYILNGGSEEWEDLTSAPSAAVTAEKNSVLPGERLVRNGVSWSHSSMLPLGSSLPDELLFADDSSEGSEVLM
Outline: as §1

[3] = biological target: T3, 380 human recombinant protein kinases (Homo sapiens, UniProt Q13535); details: ATR/ATRIP(h), read-out: Inhibition rate (%)
T3 construct: purchased Eurofins (Celle Lévescault)
T3 sequence (Q13535 whole entry): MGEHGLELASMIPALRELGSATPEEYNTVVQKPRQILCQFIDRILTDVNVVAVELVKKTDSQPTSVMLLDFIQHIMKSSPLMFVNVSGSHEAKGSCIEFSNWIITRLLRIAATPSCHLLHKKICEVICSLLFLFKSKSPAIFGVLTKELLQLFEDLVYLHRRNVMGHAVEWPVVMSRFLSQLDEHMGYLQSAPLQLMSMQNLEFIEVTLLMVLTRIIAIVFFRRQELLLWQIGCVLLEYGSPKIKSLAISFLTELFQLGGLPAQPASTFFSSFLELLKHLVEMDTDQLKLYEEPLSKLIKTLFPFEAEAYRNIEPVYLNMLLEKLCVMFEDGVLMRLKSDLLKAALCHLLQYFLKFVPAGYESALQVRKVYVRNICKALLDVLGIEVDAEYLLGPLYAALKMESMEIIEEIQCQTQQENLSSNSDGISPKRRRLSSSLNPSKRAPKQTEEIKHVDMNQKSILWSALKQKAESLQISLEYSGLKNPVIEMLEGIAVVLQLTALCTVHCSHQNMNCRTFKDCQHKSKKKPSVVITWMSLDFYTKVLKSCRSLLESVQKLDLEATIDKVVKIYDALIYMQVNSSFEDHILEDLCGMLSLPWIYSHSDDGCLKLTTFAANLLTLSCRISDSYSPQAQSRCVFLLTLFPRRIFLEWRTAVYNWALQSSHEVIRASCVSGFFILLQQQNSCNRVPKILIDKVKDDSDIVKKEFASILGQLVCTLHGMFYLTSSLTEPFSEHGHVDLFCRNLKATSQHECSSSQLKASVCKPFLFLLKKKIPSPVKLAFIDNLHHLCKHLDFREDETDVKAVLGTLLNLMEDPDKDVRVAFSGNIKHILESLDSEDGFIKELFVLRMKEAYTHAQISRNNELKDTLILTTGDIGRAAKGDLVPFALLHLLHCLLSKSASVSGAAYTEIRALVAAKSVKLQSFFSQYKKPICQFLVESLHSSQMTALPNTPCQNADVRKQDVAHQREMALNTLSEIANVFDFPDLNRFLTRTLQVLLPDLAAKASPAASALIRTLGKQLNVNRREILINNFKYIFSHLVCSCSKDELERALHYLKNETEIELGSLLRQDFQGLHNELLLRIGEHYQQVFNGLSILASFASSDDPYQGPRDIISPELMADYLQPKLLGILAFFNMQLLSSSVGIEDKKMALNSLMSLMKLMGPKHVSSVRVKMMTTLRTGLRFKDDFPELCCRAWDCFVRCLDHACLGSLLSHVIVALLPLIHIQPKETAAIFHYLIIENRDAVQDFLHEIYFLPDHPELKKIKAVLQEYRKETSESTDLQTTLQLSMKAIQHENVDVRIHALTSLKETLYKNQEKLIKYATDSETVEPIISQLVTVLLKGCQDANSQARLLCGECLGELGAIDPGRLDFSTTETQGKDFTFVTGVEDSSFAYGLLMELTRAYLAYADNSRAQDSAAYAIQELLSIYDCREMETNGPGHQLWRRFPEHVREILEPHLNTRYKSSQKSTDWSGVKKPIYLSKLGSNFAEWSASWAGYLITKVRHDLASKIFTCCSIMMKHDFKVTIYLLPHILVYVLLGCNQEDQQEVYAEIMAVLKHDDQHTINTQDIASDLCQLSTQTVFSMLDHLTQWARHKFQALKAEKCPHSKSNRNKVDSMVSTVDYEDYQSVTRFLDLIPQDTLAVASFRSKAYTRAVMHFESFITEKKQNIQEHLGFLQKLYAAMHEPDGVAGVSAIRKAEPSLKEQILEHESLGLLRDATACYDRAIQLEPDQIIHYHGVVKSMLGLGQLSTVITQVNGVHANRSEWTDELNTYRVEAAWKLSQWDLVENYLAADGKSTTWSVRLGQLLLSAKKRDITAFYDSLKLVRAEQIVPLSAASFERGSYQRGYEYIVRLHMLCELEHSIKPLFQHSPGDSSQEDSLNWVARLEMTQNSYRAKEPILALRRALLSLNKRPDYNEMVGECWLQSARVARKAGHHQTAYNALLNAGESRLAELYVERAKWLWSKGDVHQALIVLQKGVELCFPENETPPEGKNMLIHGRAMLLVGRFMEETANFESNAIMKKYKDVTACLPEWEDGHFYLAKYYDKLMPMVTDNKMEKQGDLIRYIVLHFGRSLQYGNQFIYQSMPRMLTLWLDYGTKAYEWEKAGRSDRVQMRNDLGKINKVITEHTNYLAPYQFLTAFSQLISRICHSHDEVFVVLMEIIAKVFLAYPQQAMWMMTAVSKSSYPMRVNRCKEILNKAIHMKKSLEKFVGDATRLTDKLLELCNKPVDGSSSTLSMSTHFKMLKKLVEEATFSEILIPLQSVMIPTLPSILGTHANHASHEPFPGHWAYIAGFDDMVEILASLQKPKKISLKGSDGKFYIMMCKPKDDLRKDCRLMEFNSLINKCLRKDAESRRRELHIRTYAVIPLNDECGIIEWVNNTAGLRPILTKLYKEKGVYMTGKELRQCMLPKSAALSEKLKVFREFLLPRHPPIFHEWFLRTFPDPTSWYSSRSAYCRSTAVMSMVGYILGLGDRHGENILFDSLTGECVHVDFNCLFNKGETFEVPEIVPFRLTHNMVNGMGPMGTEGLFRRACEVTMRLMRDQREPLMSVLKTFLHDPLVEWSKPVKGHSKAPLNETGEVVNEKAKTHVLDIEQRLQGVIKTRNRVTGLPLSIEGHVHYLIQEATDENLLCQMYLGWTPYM
Outline: as §1

[4] = biological target: T4, 380 human recombinant protein kinases (Homo sapiens, UniProt Q13873); details: BMPR2(h), read-out: Inhibition rate
T4 construct: purchased Eurofins (Celle Lévescault)
T4 sequence (Q13873 27-1038): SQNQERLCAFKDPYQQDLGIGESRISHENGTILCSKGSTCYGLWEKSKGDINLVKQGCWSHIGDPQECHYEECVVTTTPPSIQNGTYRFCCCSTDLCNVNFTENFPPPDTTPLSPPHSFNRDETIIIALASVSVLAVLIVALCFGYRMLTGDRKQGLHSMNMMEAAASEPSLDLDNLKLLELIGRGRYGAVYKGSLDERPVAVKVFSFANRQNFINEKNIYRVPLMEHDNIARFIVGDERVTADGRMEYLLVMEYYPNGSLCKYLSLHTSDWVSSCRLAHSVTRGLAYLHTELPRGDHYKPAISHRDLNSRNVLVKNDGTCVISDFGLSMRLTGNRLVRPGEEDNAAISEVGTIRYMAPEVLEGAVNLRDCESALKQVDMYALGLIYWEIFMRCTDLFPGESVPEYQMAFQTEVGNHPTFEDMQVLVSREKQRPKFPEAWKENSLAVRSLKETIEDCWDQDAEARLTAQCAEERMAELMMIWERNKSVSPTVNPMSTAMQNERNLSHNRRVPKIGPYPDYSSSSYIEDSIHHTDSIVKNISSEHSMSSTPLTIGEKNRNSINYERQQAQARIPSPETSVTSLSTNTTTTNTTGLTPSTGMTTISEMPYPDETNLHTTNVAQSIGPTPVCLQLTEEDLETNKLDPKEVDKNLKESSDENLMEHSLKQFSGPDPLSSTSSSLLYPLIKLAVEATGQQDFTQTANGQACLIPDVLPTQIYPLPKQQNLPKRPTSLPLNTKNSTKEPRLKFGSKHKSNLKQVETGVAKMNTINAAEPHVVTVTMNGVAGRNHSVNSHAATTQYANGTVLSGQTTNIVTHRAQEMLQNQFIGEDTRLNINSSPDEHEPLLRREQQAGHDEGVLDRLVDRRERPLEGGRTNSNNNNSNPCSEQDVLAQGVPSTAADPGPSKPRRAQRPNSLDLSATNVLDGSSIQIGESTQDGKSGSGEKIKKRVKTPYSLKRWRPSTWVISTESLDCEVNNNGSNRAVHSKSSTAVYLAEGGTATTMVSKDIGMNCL
Outline: as §1

[5] = biological target: T5, 380 human recombinant protein kinases (Homo sapiens, UniProt Q14289); details: Pyk2(h), read-out: Inhibition rate
T5 construct: purchased Eurofins (Celle Lévescault)
T5 sequence (Q14289 whole entry): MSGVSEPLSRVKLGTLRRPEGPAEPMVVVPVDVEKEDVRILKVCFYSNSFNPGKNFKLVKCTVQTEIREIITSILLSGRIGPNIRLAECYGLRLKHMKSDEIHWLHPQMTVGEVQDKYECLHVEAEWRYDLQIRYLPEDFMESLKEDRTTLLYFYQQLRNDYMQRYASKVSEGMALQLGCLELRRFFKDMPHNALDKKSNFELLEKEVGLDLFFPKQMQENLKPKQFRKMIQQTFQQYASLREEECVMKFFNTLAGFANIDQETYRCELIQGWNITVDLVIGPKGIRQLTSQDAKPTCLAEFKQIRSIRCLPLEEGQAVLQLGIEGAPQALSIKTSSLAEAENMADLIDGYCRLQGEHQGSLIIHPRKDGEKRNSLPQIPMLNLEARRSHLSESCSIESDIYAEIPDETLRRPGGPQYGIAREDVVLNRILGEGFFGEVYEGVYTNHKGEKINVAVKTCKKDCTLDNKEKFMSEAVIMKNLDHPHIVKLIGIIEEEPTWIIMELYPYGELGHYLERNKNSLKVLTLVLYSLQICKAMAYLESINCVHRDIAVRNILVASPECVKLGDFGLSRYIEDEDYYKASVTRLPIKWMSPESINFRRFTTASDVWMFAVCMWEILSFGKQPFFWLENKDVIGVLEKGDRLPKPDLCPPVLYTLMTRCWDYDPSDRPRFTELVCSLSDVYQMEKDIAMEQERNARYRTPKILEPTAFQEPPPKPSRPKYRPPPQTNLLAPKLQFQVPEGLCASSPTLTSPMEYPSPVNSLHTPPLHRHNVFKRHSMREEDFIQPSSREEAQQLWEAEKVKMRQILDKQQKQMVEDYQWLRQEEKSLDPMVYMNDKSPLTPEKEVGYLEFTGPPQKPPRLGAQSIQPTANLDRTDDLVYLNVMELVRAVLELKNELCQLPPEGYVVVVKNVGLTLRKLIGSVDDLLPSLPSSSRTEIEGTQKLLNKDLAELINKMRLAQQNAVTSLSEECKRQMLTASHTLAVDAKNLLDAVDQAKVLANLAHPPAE
Outline: as §1

SMILES: C=CC(=O)Nc1cc(-c2cc(-c3cc4c([nH]3)CCNC4=O)ccn2)ccc1OC(F)(F)F [compound 11]
- inhibition at 0.01 µM ([1]; 10 nM): -6%
- inhibition at 0.1 µM ([1]; 100 nM): 5%
- inhibition at 1 µM ([1]; 1000 nM): 27%
- inhibition at 0.01 µM ([2]; 10 nM): -21%
- inhibition at 0.1 µM ([2]; 100 nM): 4%
- inhibition at 1 µM ([2]; 1000 nM): 28%
- inhibition at 0.01 µM ([3]; 10 nM): -15%
- inhibition at 0.1 µM ([3]; 100 nM): -17%
- inhibition at 1 µM ([3]; 1000 nM): -20%
- inhibition at 0.01 µM ([4]; 10 nM): 8%
- inhibition at 0.1 µM ([4]; 100 nM): 13%
- inhibition at 1 µM ([4]; 1000 nM): 28%
- inhibition at 0.01 µM ([5]; 10 nM): -11%
- inhibition at 0.1 µM ([5]; 100 nM): -5%
- inhibition at 1 µM ([5]; 1000 nM): 6%
